Publication PMC4491869, “Antimicrobial activity of synthetic cationic peptides and lipopeptides derived from human lactoferricin against Pseudomonas aeruginosa planktonic cultures and biofilms” (BMC Microbiology, 2015)
In brackets after ≈: the same amount, converted by molar mass. Where a SMILES comes first, the peptide text is derived from it. The star is where a group is joined. Butanoyl(2,2-Me2) = CCC(C)(C)C(=O)*; Octanoyl(6-Me) = CCC(C)CCCCC(=O)*

Tests used:
P. aeruginosa PAO1 = assay: Time-kill curves (T3log); assay type: cell-based, Pseudomonas aeruginosa; details: MH, 37 °C with shaking, sampling 15 min to 6 h
Method: Time-kill studies were determined with glass tubes containing 10 ml of MH and different concentrations of the peptides (1, 2 and 4 times their MIC). Overnight cultures of P. aeruginosa PAO1 in TSB were adjusted at 5 × 10^7 CFU/ml turbidimetrically. This […] suspension was diluted in the MH tubes (1:50) for the time-kill assay. Tubes were incubated at 37 °C with shaking and samples were taken at the following time points after the beginning of incubation: 15 min, 30 min, 45 min, 1 h, 2 h, 4 h and 6 h. Each sample was serially diluted and plated. The lower limit of detection was 30 CFU/ml (1.5 × log10 CFU/ml).
To quantify the killing efficiency of the treatments, the parameter T3log (defined as the time required for the treatment to decrease 3 logs the initial inoculum) was used.

[1] = test system: Pseudomonas aeruginosa PAO1 planktonic cells; assay type: cell-based; details: PAO1, 24 h
Method: Minimal inhibitory concentrations (MIC) of the peptides were determined in Mueller Hinton (MH) medium (Difco Laboratories, Detroit, MI, USA) by the broth microdilution assay following recommendations of the Clinical and Laboratory Standards Institute (CLSI, formerly NCCLS) with some modifications. Minimum bactericidal concentration (MBC) was defined as the concentration that caused a 3-log viability decrease in the initial inoculum and was calculated by colony counts on TSA plates incubated for 24 h at 37 °C.

S. aureus = assay: MIC against S. aureus; assay type: cell-based; details: data not shown
[2] = test system: P. aeruginosa PAO1 pMF230 biofilm; assay: CDC-reactor biofilm assay, confocal laser scanning microscopy (GFP/PI); assay type: cell-based, Pseudomonas aeruginosa; details: 10XMIC, 60 min, CLSM, determined by volume
Method: (§1) Briefly, 1 ml of an overnight culture of P. aeruginosa PAO1 pMF230 was inoculated into 350 ml of TSB and this suspension was used to fill the reactor chamber. After 24 h of growth in batch culture at 37 °C with magnetic agitation, a continuous flow of TSB (3 g/l) was applied to the reactor chamber at a rate of 11 ml/min. Under these conditions, a dense biofilm develops on the surface of small disks called coupons that are constantly bathed in fresh culture medium. After 24 h incubation, the coupons were removed from the chamber and planktonic cells were eliminated by rinsing the coupons with saline. […]
(§2) For the microscopic assessment of anti-biofilm activity, biofilms grown and treated on coupons as detailed above were soaked in a 120 μM solution of propidium iodide (PI, live/dead® Baclight™ bacterial viability kit, Invitrogen, Carlsbad, CA, USA) in filter-sterilized distilled water and incubated for 15 min at room temperature. Then, coupons were rinsed in filter-sterilized distilled water and their surface was examined by fluorescence microscopy using FITC filter (green fluorescence: λexcitation, 499 nm; λemission, 519 nm) and TRITC filter (red fluorescence: λexcitation, 552 nm; λemission, 578 nm). […] Microscope images were analyzed with the software Imaris® × 64 5.7.2. […]

[3] = test system: P. aeruginosa PAO1 biofilms; assay type: cell-based, Pseudomonas aeruginosa; details: 10XMIC, 24 h at 37 °C, biofilms grown in microplates (static conditions)
Method: In the microplate based assay, biofilms were grown with no fluid shear and the anti-biofilm activity of peptides was assessed as previously described with some modifications. Briefly, overnight cultures of P. aeruginosa PAO1 in TSB were adjusted at 5 × 10^7 CFU/ml turbidimetrically. This suspension was diluted in TSB (1:100) and 100 μl aliquots were added to the wells of a 96-well plate. After 24 h incubation at 37 °C, planktonic bacteria were removed by gently inverting the plate and then the biofilm-containing wells were washed with saline (0.85 % NaCl). The antimicrobial compound was serially diluted in Mueller Hinton (MH) at final concentrations higher than its planktonic MIC and 200 μl of each dilution was added to the wells. After 24 h incubation at 37 °C, biofilms were stained with either MTT (Sigma, St. Louis, MO, USA) or crystal violet (CV). As control, duplicate biofilms were incubated with MH containing no antimicrobial.
To quantify the disinfection (or bactericidal) activity of the antimicrobials on the biofilms, the MTT assay was used and performed as follows. After the treatment, the biofilms were rinsed with saline and 200 μl of a 0.5 mg/ml dilution of MTT in MH, was added to the wells. Incubation of biofilm with MTT was carried out during 4 h at 37 °C with no shaking. As a measure of cell viability, the conversion of MTT to a […] was determined by solubilizing the salt in 100 μl/well of DMSO and reading the absorbance of the resulting solution at 540 nm.
Both the disinfection and removal activity of antimicrobials were expressed as “activity percentage”, a parameter that was calculated using the following formula: ActivityPercentage=C−B−T−B/C−B×100
Where C is the absorbance value of the control well with non-treated biofilm, T corresponds to the absorbance value of the well with treated biofilm and B is the blank well (i.e. with no biofilm).

[4] = test system: P. aeruginosa PAO1 pMF230 biofilm; assay: CDC-reactor biofilm assay, fluorescence microscopy (GFP/PI); assay type: cell-based, Pseudomonas aeruginosa; details: 10XMIC, 60 min, CDC-reactor coupons; compared with 24 h microplate assay
Method: as §1, §2

HeLa cells = assay: Cytotoxicity assay (MTT); assay type: cell-based
Method: Cytotoxicity was assayed on HeLa cells using the MTT [3-(4,5-dimethylthiazoyl-2-yl) 2,5 diphenyltetrazolium bromide protocol. Cells were grown in Dulbeccos’s modified Eagle’s medium (DMEM) and adjusted to a concentration of 10^5 cells/ml (MTT) in 96 wells polystyrene plates. Plates were incubated for 24 h at 37 °C in 5 % CO2, then supplemented with increasing amounts of peptides diluted in 2 mM Hepes pH 7.2, and incubation carried on for 24 h under the same conditions. After this time, filter-sterilized MTT was added in different plates. After 3 h, the content of the wells was gently solved and mixed with 100 μl of DMSO (MTT). Absorbance was measured at 540 nm. Compound cytotoxicity was expressed as LC50, the concentration of the compound that is lethal to 50 % of the cells.

Structure (SMILES) | T3log at 1X MIC (time needed to decrease 3 logs the initial inoculum) (P. aeruginosa PAO1) | T3log at 2X MIC (time needed to decrease 3 logs the initial inoculum) (P. aeruginosa PAO1) | T3log at 4X MIC (time needed to decrease 3 logs the initial inoculum) (P. aeruginosa PAO1) | MBC (minimal bactericidal concentration) [1] | MIC (minimal inhibitory concentration) [1] | MIC against S. aureus compared with non-acylated counterpart (S. aureus) | Percentage of dead (red) cells in the biofilm volume [2] | Disinfection activity (biofilm-forming bacteria killed, MTT test) [3] | Anti-biofilm activity under static and dynamic conditions (fluorescence microscopy) [4] | LC50 expressed as multiple of the MIC (HeLa cells) | LC50 (concentration lethal to 50 % of the cells) (HeLa cells; HeLa cells, 24 h, MTT)
CCC(C)CCCCC(=O)N[C@@H](Cc1ccccc1)C(=O)N[C@@H](Cc1c[nH]c2ccccc12)C(=O)N[C@@H](CCCNC(=N)N)C(=O)N[C@@H](CCCNC(=N)N)C(=O)N[C@@H](Cc1ccccc1)C(=O)N[C@@H](Cc1c[nH]c2ccccc12)C(=O)N[C@@H](CCCNC(=N)N)C(=O)N[C@@H](CCCNC(=N)N)C(N)=O (stereo partly shown) [6-MO-LF11-227] ({Octanoyl(6-Me)}-FWRRFWRR-NH2) | 10 minutes | 10 minutes | 10 minutes | 128 µg/mL (≈ 88.3 µM) | 128 µg/mL (≈ 88.3 µM) | eight times lower | – | – | – | – | –
CC[C@H](C)[C@H](NC(=O)[C@H](CCCNC(=N)N)NC(=O)[C@@H](NC(=O)[C@H](CCCNC(=N)N)NC(=O)[C@H](Cc1c[nH]c2ccccc12)NC(=O)[C@H](Cc1ccccc1)NC(=O)[C@@H]1CCCN1C(=O)C(C)(C)CC)[C@@H](C)CC)C(=O)N[C@@H](CCCNC(=N)N)C(=O)N[C@@H](CCCNC(=N)N)C(N)=O [DI-MB-LF11-322, 2,2-dimethylbutanoyl-PFWRIRIRR] ({Butanoyl(2,2-Me2)}-PFWRIRIRR-NH2) | 12 minutes | 11 minutes | 10 minutes | 32 µg/mL (≈ 22.9 µM) | 32 µg/mL (≈ 22.9 µM) | – | 99.81% | medium-range disinfection activity | potent anti-biofilm activity | ~2 XMIC | 80 µg/mL
